{"source": "patent US11337990B2", "about": "“Human milk oligosaccharides to promote growth of beneficial bacteria” (ABBOTT LABORATORIES, priority 2010, dated 2022)", "key": {"bifidobacteria strains": {"tested_on": "bifidobacteria strains", "experiment": "Bacterial growth assay (OD600), panel of 12 strains", "assay_type": "cell-based, Bifidobacterium", "details": "1% carbohydrate in sMRS+cysteine", "protocol": "Coy Laboratory Products, Grass Lake, Mich.). Subsequently, the cultures are passed twice on a semi-synthetic MRS medium ([…] which is supplemented with 1% (w/v) filter-sterilized glucose as the sole carbohydrate source. […] For bifidobacteria strains, the same procedure is followed except all media are supplemented with 0.5 g/l L-cysteine/HCl. [table] After the 2nd pass in sMRS+glucose+cysteine, the cultures are washed once with 10 mL of sterile sMRS+cysteine (no carbohydrate), resuspended in 10 ml of sterile sMRS+cysteine (no carbohydrate) and then used as a 1% inoculum. The carbohydrates are sterilized with a 0.22 micron filter and used at a 1% final concentration. Cell growth is performed in 250 μL of sMRS+cysteine covered with 50 μL of mineral oil in a Bioscreen 100-well Honeycomb plate. […] The plate reader is operated in discontinuous mode, with absorbance readings performed in 30-minute intervals, and preceded by 30-second shaking intervals at maximum speed. Controls consist of inoculated medium lacking carbohydrate. […] All three plates include a positive control (glucose) and negative control (no carbohydrate). The OD600 data for each carbohydrate is corrected by subtracting the OD600 of the basal media (sMRS)+cysteine from the sample plate for each probiotic. Maximum OD is determined by inspection of the corrected growth data. OD is determined by subtracting the initial corrected OD (time point 0) from the maximum corrected OD. Samples are grown in biologically independent triplicates and the resulting growth kinetic data are expressed as the mean of these replicates. For the growth curve plots, OD600 vs. time is first plotted for the bacteria grown on medium lacking carbohydrate (sMRS). For all other carbohydrates, the OD600 data is corrected by subtracting the OD600 of sMRS."}, "B. breve ATCC 15700": {"tested_on": "B. breve ATCC 15700", "experiment": "Bacterial growth assay (OD600)", "assay_type": "cell-based, Bifidobacterium breve", "details": "1% carbohydrate in sMRS+cysteine", "protocol": "Coy Laboratory Products, Grass Lake, Mich.). Subsequently, the cultures are passed twice on a semi-synthetic MRS medium ([…] which is supplemented with 1% (w/v) filter-sterilized glucose as the sole carbohydrate source. […] For bifidobacteria strains, the same procedure is followed except all media are supplemented with 0.5 g/l L-cysteine/HCl. […] After the 2nd pass in sMRS+glucose+cysteine, the cultures are washed once with 10 mL of sterile sMRS+cysteine (no carbohydrate), resuspended in 10 ml of sterile sMRS+cysteine (no carbohydrate) and then used as a 1% inoculum. The carbohydrates are sterilized with a 0.22 micron filter and used at a 1% final concentration. Cell growth is performed in 250 μL of sMRS+cysteine covered with 50 μL of mineral oil in a Bioscreen 100-well Honeycomb plate. […] The plate reader is operated in discontinuous mode, with absorbance readings performed in 30-minute intervals, and preceded by 30-second shaking intervals at maximum speed. Controls consist of inoculated medium lacking carbohydrate. […] Maximum OD is determined by inspection of the corrected growth data. OD is determined by subtracting the initial corrected OD (time point 0) from the maximum corrected OD. Samples are grown in biologically independent triplicates and the resulting growth kinetic data are expressed as the mean of these replicates. […]"}, "Caco-2 cells": {"tested_on": "Caco-2 cells", "experiment": "Alkaline phosphatase activity per milligram of protein (cell differentiation), Caco-2", "assay_type": "cell-based, human", "details": "Example 48: LNnT or 2′FL 20, 200, 2000 mg/L; 6′SL 40, 400, 4000 mg/mL; 72 hours", "protocol": "In a second experiment, Caco-2 cells, which model more mature epithelial cells of the small intestine, are incubated in a humidified atmosphere of 5% carbon dioxide at 37° C. in the presence of LNnT or 2′FL at concentrations of 0 mg/L (“0”), 20 mg/L (“20”), 200 mg/L (“200”), and 2000 mg/L (“2000”) or in the presence of 6′SL at concentrations of 0 mg/mL (“0”), 40 mg/mL (“40”), 400 mg/mL (“400”), and 4000 mg/mL (“4000”) for 72 hours. The culture medium utilized is Dulbecco's Modified Eagle Medium (Life Technologies, Foster City Calif.) supplemented with 10% fetal calf serum and 2 mM glutamine. The controls (“energy”) consist of 91.5 mg lactose and 64.2 mg N-acetyllactosamine/L for LNnT; 133 mg lactose and 67 mg fucose/L for 2′FL; and 195 mg lactose and 205 mg sialic acid/L for 6′SL. The impact of the LNnT, 2′FL, and 6′SL at various levels and the control on Caco-2 cell proliferation is measured using a conventional BrdU assay, which measures the number of cells that have recently synthesized DNA. […] Additionally, the impact of LNnT, 2′FL, and 6′SL at various levels and the controls on the alkaline phosphatase activity per milligram of protein for Caco-2 cells, which is an indication of cell differentiation, is measured."}}}
{"smiles": "CC(=O)N[C@H]1[C@H](O[C@H]2[C@@H](O)[C@@H](CO)O[C@@H](O[C@H]3[C@H](O)[C@@H](O)C(O)O[C@@H]3CO)[C@@H]2O)O[C@H](CO)[C@@H](O[C@@H]2O[C@H](CO)[C@H](O)[C@H](O)[C@H]2O)[C@@H]1O", "note": "(mixture of isomers) [LNnT, Lacto-N-neotetraose]", "values": [{"measurement": "growth / ability to ferment (OD600)", "setting": "bifidobacteria strains", "value": "B. breve ATCC 15700, B. infantis ATCC 15697 and B. infantis M-63 are able to ferment"}, {"measurement": "growth / ability to ferment (OD600)", "setting": "B. breve ATCC 15700", "value": "grow well"}, {"measurement": "alkaline phosphatase activity per milligram of protein (cell differentiation)", "setting": "Caco-2 cells", "value": "trend toward an increase"}]}
